Source: the SangsterLogP compilation

Key:
[1] = method code SF-AS, from Wang, W.; Wang, L.; Tian, L.; Zhang, Z.; Qiu, J. (1987). Partition coefficients of the intermediate of pyrethroid in n-octanol/water system. Huazhong Gongxueyuan Xuebao, 15(1)135-137.

Row | logP [1] | logP | SMILES
1 | 1.28 |  | COCc1ccc(COC)cc1
2 | 1.23 |  | COCc1ccc(CC#N)cc1
3 | 2.16 |  | CCOCc1ccccc1
4 | 1.67 |  | COCc1ccccc1
5 | 2.41 |  | C=CCOCc1ccccc1
6 | 3.41 |  | CC(C)C(C#N)c1ccc(Cl)cc1 (stereo not given)
7 |  | 1.23 | COCc1ccc(C#N)cc1

Row | SMILES | logP [1] | logP
8 | ClCc1ccc(Cl)cc1 | 3.18 | 
9 | N#CCc1ccc(Cl)cc1 | 2.47 | 
10 | Cc1ccc(CC#N)cc1 | 1.67 | 
